Laboratory results from PubChem BioAssay AID493002 (Sanford-Burnham Center for Chemical Genomics, 2010).

These compounds were tested on S. cerevisiae tim23-1 mutant growth, luminescence (assay: tim23-1 mutant yeast growth inhibitors, dose response, luminescence, uHTS hits (AID 493002);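 also: yeast grown roughly 22 hours at 25 °C before the luminescence read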).

Point of comparison: `Cc1nc2nc(-c3cccs3)[nH]c2cc1Br`, IC50 7.8 µM. Against it:
- CCOC(=O)Nc1cccc(NC(=O)c2ccccc2F)c1 — 1.7-fold higher, 13.3 µM
- CCOC(=O)CSc1c(-c2cccs2)[nH]c2ccccc12 — 1.9-fold higher, 15.2 µM
- CCc1cccc2c(C(=O)CCl)c[nH]c12 — within 1.5-fold, 9.27 µM
- Cc1nc2scc(C)n2c(=O)c1S(=O)(=O)Nc1ccc(N2CCOCC2)cc1 — within 1.5-fold, 6.67 µM
- COC(=O)c1ccc(-c2ccc(C(c3c(C)[nH][nH]c3=O)c3c(C)[nH][nH]c3=O)o2)cc1 — within 1.5-fold, 11.2 µM
- OCCCNc1cc(-c2ccccc2)nc2cc(-c3ccc(F)cc3)nn12 — 4.3-fold higher, 33.3 µM
- C#CCOCCOCCOCCNc1nc(N2CCN(C(=O)CCCCCCCCCCNC(=O)[C@H](CCCCN)n3cc(CCO)nn3)CC2)nc(N2CCN(C(=O)CCCCCCCCCCNC(=O)[C@H](CCCCN)n3cc(C[C@@H](C)CC)nn3)CC2)n1 — 2.2-fold higher, 17.1 µM
- COc1ccc(C(=O)N/N=C\c2coc3ccc(Cl)cc3c2=O)cc1 — within 1.5-fold, 8.27 µM
- CCc1ccc2oc(-c3cc(N)ccc3Cl)nc2c1 — within 1.5-fold, 6.18 µM
- O=C(NC(=O)c1ccccc1F)OCc1ccc(Cl)cc1Cl — 1.5-fold higher, 11.9 µM
- CCCN1C(=O)C(=O)c2cc(Cl)ccc21 — 2.4-fold higher, 19.1 µM
- CCSc1ncc(/C=N/Nc2ccc(Cl)cc2)n1C — within 1.5-fold, 5.9 µM
- CCN(CC)c1ccc(/C=N/NC(=O)c2ccc3c(c2)OCCO3)cc1 — within 1.5-fold, 11.3 µM
- O=C(Nc1ccn(Cc2ccc(Cl)cc2)n1)c1ccc2c(c1)OCO2 — within 1.5-fold, 11.1 µM
- COc1ccc2oc(/C=C/N(C)C)c(C(=O)c3ccc(Cl)cc3)c2c1 — 1.9-fold higher, 15 µM
- O=C(/C(=C/O)N=Nc1ccccc1)c1ccco1 — within 1.5-fold, 10.7 µM
- O=C(Nc1nc2ccccc2s1)C1CCCN1S(=O)(=O)c1ccc(Cl)cc1 (stereo unspecified) — within 1.5-fold, 8.08 µM
- CCN(CC)c1ccc(C(=O)Nc2cccc(F)c2)cc1 — 1.5-fold lower, 5.19 µM
- CS(=O)(=O)c1ccc2nc(NC(=O)c3ccco3)sc2c1 — 2.5-fold higher, 19.4 µM
- Cc1ccc(NC(=O)c2ccc3c(c2)OCCO3)cc1C — 1.7-fold higher, 13 µM
- COc1ccc(C(=O)N/N=C/c2ccc(OC)c(COc3ccc(F)cc3F)c2)cc1 — 3.2-fold higher, 24.9 µM
- O=c1oc(-c2ccccc2F)nc2c1cnn2-c1ccccc1 — within 1.5-fold, 7.71 µM
- CC(C)c1nc(NCCO)c(C#N)c2c1CCCC2 — 1.6-fold higher, 12.4 µM
- O=[N+]([O-])c1ccccc1S(=O)(=O)Nc1cccc2cccnc12 — within 1.5-fold, 7.7 µM
- Cc1ccc2[nH]cc(C(=O)CCl)c2c1 — within 1.5-fold, 6.02 µM
- Cn1cccc1-c1nc2ccc(NC(=O)c3cccs3)cc2[nH]1 — within 1.5-fold, 10.8 µM
- CC1CCN(c2nnc(N3CCC(C)CC3)c3ccccc23)CC1 — 4.5-fold higher, 34.9 µM
- O=c1c2ccccc2nc2c3ccccc3cnn12 — 1.9-fold higher, 15 µM
- O=C(/C=C\Nc1cccc(F)c1)c1cccs1 — within 1.5-fold, 7.31 µM
- CC1=NN(c2ccccc2)C(=O)/C1=C/c1c(O)n(-c2ccc(F)c(Cl)c2)[nH]c1=O — 3.1-fold higher, 24.3 µM
- CCn1c(N2CCN(S(=O)(=O)c3ccc(OC)cc3)CC2)nc2ccccc21 — within 1.5-fold, 8.88 µM
- Cc1ccc(Nc2nc(-c3cccnc3)nc3ccccc23)cc1 — within 1.5-fold, 5.21 µM
- C[C@@]12C(=O)Nc3ccc(Cl)cc3C(=O)N1[C@H]1c3ccccc3OC[C@@H]1[C@@H]2c1ccccc1 — 2.3-fold lower, 3.38 µM
- Cc1ccc(S(=O)(=O)N2C(=O)[C@@H]3Cc4ccccc4CN3C2=O)cc1 — 3.9-fold higher, 30.5 µM
- Cc1ccc(S(=O)(=O)Oc2ccccc2C=C2C(=O)N(C)C(=O)N(C)C2=O)cc1 — 1.8-fold lower, 4.22 µM
- O=C(COc1ccccc1)N/N=C/c1ccc([N+](=O)[O-])o1 — within 1.5-fold, 6.56 µM
- CCC(C)c1ccc(NC(=O)C2CC3CCC2C3)cc1 (stereo unspecified) — 1.6-fold higher, 12.5 µM
- Cc1cccc(C(=O)OCC(=O)NC23CC4CC(CC(C4)C2)C3)c1O — 1.6-fold higher, 12.5 µM
- CC1CCc2c(c3ccccc3n2C(=O)CCl)C1 (stereo unspecified) — 2.1-fold lower, 3.68 µM
- COCCNC(=O)/C(C#N)=C/c1ccc(OCc2ccc(F)cc2)cc1 — within 1.5-fold, 10.5 µM
- Cc1csc2nc(O)c(C(=O)NC3CCCCC3C)c(=O)n12 (stereo unspecified) — 1.6-fold higher, 12.2 µM
- CC(=O)Nc1ncnc2c1c(-c1ccc(Cl)cc1)nn2C(C)(C)C — within 1.5-fold, 10 µM
- COc1ccc(-c2cc(-c3ccccc3)n[nH]2)c(O)c1 — 2.3-fold higher, 18.3 µM
- CC(=O)Nc1ccc(S(=O)(=O)N(Cc2cccnc2)Cc2cc3ccc(C)cc3[nH]c2=O)cc1 — 3-fold higher, 23.1 µM
- Cc1ccc(Nc2nc3ccccc3s2)c(C)c1 — within 1.5-fold, 11.1 µM
- O=C(N/N=C/c1cccc(F)c1)c1csc2c1CCCC2 — within 1.5-fold, 11.4 µM
- O=[N+]([O-])c1ccc(N/N=C/c2cccc(O)c2)cc1 — within 1.5-fold, 6.99 µM
- O=C(Nc1cc(-c2ccccc2)[nH]n1)c1ccccc1 — 1.9-fold lower, 4.2 µM
- O=S(=O)(CCSc1ccccn1)c1nc2ccccc2s1 — within 1.5-fold, 10 µM
- CC(=O)c1sc(-c2ccc(Cl)cc2)cc1N — 2.4-fold higher, 18.8 µM
- c1ccc(-n2nc3c(ccc4cnnc43)[nH]2)cc1 — 3.1-fold higher, 24.5 µM
- COc1ccc(N2CCC(CNC(=S)Nc3ccc(C)cc3C)C2)cc1 (stereo unspecified) — within 1.5-fold, 7.54 µM
- COc1ccc2c(=O)c3c(=O)n(Cc4ccco4)c(-c4ccc(C)cc4)nc3oc2c1 — 2.6-fold higher, 20 µM
- CCc1nc(SCc2ccccn2)c2c(=O)n(C)c(=O)n(C)c2n1 — 2.1-fold higher, 16.3 µM
- CCOC(=O)c1ccc(NC(=O)/C=C/c2cccs2)cc1 — 3.4-fold higher, 26.6 µM
- COc1ccc(/C=C(\C#N)c2nc3ccccc3[nH]2)cc1O — 1.9-fold higher, 14.8 µM
- CCCCCCn1c(=O)c(-c2ccccc2)c(O)c2ccccc21 — within 1.5-fold, 8.95 µM
- Cc1cccc(N=Nc2cnc(N)s2)c1 — 1.9-fold higher, 15.1 µM
- Cc1cc(C(=O)Nc2ccc(Br)cn2)sc1C — 2.7-fold higher, 21.1 µM
- c1ccc2[nH]c(CSc3nc4ccccc4o3)nc2c1 — 1.6-fold higher, 12.3 µM
